According to article doi:10.1101/2023.03.15.532718v2, “Bacterial hemophilin homologs and their specific type eleven secretor proteins have conserved roles in heme capture and are diversifying as a family” (biorxiv, 2023):
Read-outs that look alike come from different tables or passages of the source.

Legend:
HrpC (Xn HrpC) = target: T1, HrpC (Xn HrpC) (Xenorhabdus nematophila, UniProt D3VG73); type: binding; settings: 20 mM Tris-HCl pH 8.0, 21 °C, brackets 95% confidence interval
T1 construct: gene XNC1_0075; residues 23-247, signal peptide omitted, His6 tag cut by TEV leaving N-terminal Gly-His-Met, E. coli Rosetta-2, apo-protein by RP-HPLC

BSA = target: T2, BSA (Bos taurus, UniProt P02769); test: UV-visible absorption titration, […] fit; type: binding; settings: 20 mM Tris-HCl pH 8.0, 21 °C, brackets 95% confidence interval
T2 construct: gene ALB

CrpC (Xc CrpC) = target: T3, CrpC (Xc CrpC) (Xenorhabdus cabanillasii, UniProt A0A3D9UFK6); type: binding; settings: 20 mM Tris-HCl pH 8.0, 21 °C, brackets 95% confidence interval
T3 construct: gene BDD26_3141; residues 23-238, signal peptide omitted, His6 tag cut by TEV leaving N-terminal Gly-His-Met, E. coli Rosetta-2, apo as purified; HGB2490 is the authors' collection number

Hpl (hemophilin, Hh Hpl) = target: T4, Hpl (hemophilin, Hh Hpl) (Haemophilus haemolyticus, UniProt A0A0M3G7Q5); test: biochemical; type: binding
T4 construct: gene AAX18_03525; signal peptide omitted, expressed in E. coli cytoplasm as previously described, apo-protein by acid acetone; strain BW1 printed for the secretion clone only

Ab HphA = target: T5, Ab HphA (Acinetobacter baumannii, UniProt A0A059ZRB8); test: biochemical; design: UV-visible absorbance titration of porphyrin with protein, 1:1 fit with ligand depletion, 21 C pH 8.0
T5 construct: signal peptide omitted, expressed in E. coli cytoplasm, apo-protein
Method: Hemin binding measurements in absorbance mode were made by successive additions of apo-protein (∼0.4 mM stock) into porphyrin solution (1.5 µM) in 20 mM Tris-HCl, pH 8 at 21°C. All binding experiments were performed at 21°C. Data were fitted to a 1:1 binding model accounting for ligand depletion, where Fobs is fluorescence signal, F0 is the starting [drawing 1] fluorescence, Fsat is a scaling factor for fluorescence at saturation, L and M are the ligand and macromolecule concentrations, respectively, and Kd is the equilibrium dissociation constant. Data were fitted using GNUPLOT version 4.6. […] Here, SSbest is the sum-of-squares for the fit with all parameters floated; Dfn and Dfd are the degrees of freedom in the numerator and denominator, respectively, for calculation of F. The Kd value was then fixed at values above or below the best-fit Kd until fits exceeded the threshold sum-of-squares. To determine a lower limit of Kd that we could expect to fit from absorbance measurements we simulated data for different Kd values with Gaussian noise added to give fits with SSbest that matched our experimental data. […] Titration of hemophilin homologues with hemin. […] A) Spectra recorded after addition of H. haemolyticus Hpl to a final concentration in the range 0.3–4.5 µM. B) Spectra recorded after addition of A. baumannii HphA to a final concentration in the range 0.4–3.8 µM. […]

T3 sequence (A0A3D9UFK6 entry or part of it): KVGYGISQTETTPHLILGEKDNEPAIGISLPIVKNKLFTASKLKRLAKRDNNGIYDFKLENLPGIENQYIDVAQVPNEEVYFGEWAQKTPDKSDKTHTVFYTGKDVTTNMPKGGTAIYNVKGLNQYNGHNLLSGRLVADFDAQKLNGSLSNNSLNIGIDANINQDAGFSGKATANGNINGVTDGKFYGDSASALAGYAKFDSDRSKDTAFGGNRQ
T1 sequence (D3VG73 entry or part of it): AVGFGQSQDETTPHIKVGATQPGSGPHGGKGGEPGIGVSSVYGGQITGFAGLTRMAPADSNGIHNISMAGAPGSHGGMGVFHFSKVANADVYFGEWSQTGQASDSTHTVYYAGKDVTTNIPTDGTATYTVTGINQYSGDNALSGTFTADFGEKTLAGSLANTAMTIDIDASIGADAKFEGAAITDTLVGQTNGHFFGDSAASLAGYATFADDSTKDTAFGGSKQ
T2 sequence (P02769 25-607): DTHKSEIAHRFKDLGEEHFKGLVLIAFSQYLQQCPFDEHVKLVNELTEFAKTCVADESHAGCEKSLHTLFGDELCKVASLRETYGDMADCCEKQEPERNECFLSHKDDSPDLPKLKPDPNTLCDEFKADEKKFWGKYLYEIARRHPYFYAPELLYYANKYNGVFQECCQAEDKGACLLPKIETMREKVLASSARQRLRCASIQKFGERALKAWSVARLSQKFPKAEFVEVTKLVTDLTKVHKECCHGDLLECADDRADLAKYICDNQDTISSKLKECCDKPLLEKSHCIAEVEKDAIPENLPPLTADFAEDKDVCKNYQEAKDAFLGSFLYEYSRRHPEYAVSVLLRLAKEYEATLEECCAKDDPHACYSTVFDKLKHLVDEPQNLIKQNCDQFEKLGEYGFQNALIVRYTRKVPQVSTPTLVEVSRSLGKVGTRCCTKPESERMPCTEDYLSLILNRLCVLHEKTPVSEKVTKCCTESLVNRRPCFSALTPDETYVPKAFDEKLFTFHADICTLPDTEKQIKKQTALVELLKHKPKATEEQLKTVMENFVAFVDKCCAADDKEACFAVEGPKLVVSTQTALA
T5 sequence (A0A059ZRB8 whole entry): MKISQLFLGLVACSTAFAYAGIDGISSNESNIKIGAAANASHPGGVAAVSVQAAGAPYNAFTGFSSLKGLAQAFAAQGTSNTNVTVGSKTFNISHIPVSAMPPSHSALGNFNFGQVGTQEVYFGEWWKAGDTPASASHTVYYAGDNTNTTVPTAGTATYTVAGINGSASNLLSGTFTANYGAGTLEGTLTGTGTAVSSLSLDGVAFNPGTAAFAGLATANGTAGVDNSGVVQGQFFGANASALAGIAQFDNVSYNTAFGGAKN
T4 sequence (A0A0M3G7Q5 entry or part of it): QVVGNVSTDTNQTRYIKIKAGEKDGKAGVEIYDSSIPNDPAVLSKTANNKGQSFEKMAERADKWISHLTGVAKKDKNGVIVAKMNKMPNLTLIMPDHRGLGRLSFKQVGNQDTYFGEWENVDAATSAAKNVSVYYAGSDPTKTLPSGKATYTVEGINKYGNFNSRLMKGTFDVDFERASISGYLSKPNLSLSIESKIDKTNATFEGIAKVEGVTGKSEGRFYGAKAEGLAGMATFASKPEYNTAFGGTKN

| Compound | Kd (HrpC (Xn HrpC)) [nM] | Kd (BSA) | Kd (CrpC (Xc CrpC)) | Kd (Hpl (hemophilin, Hh Hpl)) [nM] | Kd (Ab HphA) [nM] | Kd (HrpC (Xn HrpC); b21 prints both nM and µM for this value, table nM) [nM] | Kd (BSA; apparent Kd) | Kd (CrpC (Xc CrpC); apparent Kd) |
| --- | --- | --- | --- | --- | --- | --- | --- | --- |
| C=CC1=C(C)c2cc3[nH]c(cc4nc(cc5[nH]c(cc1n2)c(C)c5CCC(=O)O)C(CCC(=O)O)=C4C)c(C)c3C=C [PPIX] | 20 | 11 (6–14) × 10^3 nM | 7 (3–11) × 10^3 nM | 70 | ≤ 15 |  |  |  |
| C=CC1=C(C)C2=Cc3c(C=C)c(C)c4[n]3[Fe]([Cl])[n]3c(c(C)c(CCC(=O)O)c3=CC3=NC(=C4)C(C)=C3CCC(=O)O)=CC1=N2 [hemin] |  |  |  |  |  | 20 | 2 (1–5) × 10^3 nM | 5 (1–9) × 10^3 nM |
